Patent US20190175744A1, “INSULIN-INCRETIN CONJUGATES” (Merck Sharp & Dohme Corp., priority 2016, published 2019)
Where two headings read alike, the source gives them in different places.

How the values were obtained:
human GLP1R = human GLP1R (Homo sapiens, UniProt P43220); experiment: cAMP activity assay, cells expressing human GLP1R; assay type: cell-based
human GCGR = biological target: T1, human GCGR (Homo sapiens, UniProt P47871); experiment: cAMP activity assay, cells expressing human GCGR; assay type: cell-based; settings: for GCGR/GLP1R ratio: Table 5, ratio of hGCGR EC50 to hGLP1R EC50;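 on all read-outs here: cAMP production read by luminescence after one hour of peptide exposure at room temperature, EC50 from logistic curve fit, native glucagon and GLP-1 as control peptides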
T1 construct: expressed in transfected cells; grown with Blasticidin and Hygromycin
Method: Activity of the incretin peptides or the conjugates at the Glucagon receptor (GCGR) and GLP-1 receptor (GLP1R) may be measured in a cAMP activity assay as follows.
Peptides are dissolved in 100% DMSO and serially diluted to generate 10 point titrations. The peptide solutions are then transferred into 384-well assay plates (150 nL/well). Assay ready frozen cells expressing human GLP1R or human GCGR are suspended in growth media consisting of DMEM medium (GIBCO), 10% FBS (GIBCO), 1×NEAA(GIBCO), 1×P/S (GIBCO), 10 μg/mL Blasticidin (GIBCO) and 200 μg/mL Hygromycin (GIBCO). […] The cell suspensions (15 μL) are then added to the assay plates containing the peptide solutions (30,000 cells/well for human GCGR; 10,000 cells/well for human GLP1R). The cells are incubated for one hour at room temperature in the dark.
Production of cAMP may be determined using HitHunterr cAMPXS kits (DiscoverX) following the manufacturer's protocol. The plates are incubated for overnight at room temperature in the dark. Luminescence may be measured using an EnVision Multilabel plate reader (Perkin Elmer). Native GLP-1 and Glucagon (Bachem) may be used as control peptides. EC50 values may be calculated using uses a 4 parameter logistic fit based on the Levenberg-Marquardt algorithm.

[1] = Table 5, incretin peptides, cAMP, read-out: hGLP1R EC50

T1 sequence (P47871 26-477): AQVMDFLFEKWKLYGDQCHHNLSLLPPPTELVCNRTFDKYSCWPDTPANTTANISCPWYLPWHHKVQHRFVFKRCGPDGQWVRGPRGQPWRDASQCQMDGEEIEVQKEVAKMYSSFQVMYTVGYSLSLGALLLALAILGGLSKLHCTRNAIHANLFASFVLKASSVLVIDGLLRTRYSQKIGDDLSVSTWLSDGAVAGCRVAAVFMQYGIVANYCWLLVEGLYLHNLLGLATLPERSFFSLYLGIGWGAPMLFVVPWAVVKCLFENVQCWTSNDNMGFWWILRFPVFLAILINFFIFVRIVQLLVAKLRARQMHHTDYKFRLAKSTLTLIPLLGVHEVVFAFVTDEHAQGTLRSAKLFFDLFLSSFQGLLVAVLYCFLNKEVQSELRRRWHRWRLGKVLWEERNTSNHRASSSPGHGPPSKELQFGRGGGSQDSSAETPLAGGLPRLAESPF
Sequence of human GLP1R (P43220 24-463): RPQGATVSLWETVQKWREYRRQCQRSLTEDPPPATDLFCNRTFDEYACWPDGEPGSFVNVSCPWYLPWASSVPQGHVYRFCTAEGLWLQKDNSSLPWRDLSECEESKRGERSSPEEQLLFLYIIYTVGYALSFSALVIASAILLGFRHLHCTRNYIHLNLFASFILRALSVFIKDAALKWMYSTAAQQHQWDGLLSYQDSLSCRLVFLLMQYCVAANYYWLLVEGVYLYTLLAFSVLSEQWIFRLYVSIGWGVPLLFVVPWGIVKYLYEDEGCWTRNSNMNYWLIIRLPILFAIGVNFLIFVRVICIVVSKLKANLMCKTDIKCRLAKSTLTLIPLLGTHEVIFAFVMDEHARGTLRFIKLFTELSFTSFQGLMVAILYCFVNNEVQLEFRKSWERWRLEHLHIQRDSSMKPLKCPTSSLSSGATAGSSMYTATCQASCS

EC50 (human GLP1R; [1]) [nM] | SMILES | EC50 (human GCGR) [nM] | GCGR/GLP1R ratio (human GCGR) | EC50 (human GLP1R) [nM]
0.06 | CCCCCCCCCCCCCCCC(=O)N[C@@H](CCC(=O)N[C@@H](CCC(=O)NCCCC[C@H](NC(=O)[C@H](CC(=O)O)NC(=O)[C@H](CO)NC(=O)[C@@H](NC(=O)[C@H](Cc1ccccc1)NC(=O)[C@@H](NC(=O)CNC(=O)[C@H](CCC(N)=O)NC(=O)[C@@H](CO)NC(=O)[C@@H](N)Cc1c[nH]cn1)[C@@H](C)O)[C@@H](C)O)C(=O)N[C@@H](CO)C(=O)N[C@@H](CCCCN)C(=O)N[C@@H](Cc1ccc(O)cc1)C(=O)N[C@@H](CC(C)C)C(=O)N[C@@H](CC(=O)O)C(=O)N[C@@H](CCC(=O)O)C(=O)N[C@@H](CCCNC(=N)N)C(=O)N[C@@H](C)C(=O)N[C@@H](C)C(=O)N[C@@H](CCCCNC(=O)COCCOCCNC(=O)CCCCN=[N+]=[N-])C(=O)N[C@@H](CC(=O)O)C(=O)N[C@@H](Cc1ccccc1)C(=O)N[C@H](C(=O)N[C@@H](CCC(N)=O)C(=O)N[C@@H](Cc1c[nH]c2ccccc12)C(=O)N[C@@H](CC(C)C)C(=O)N[C@@H](CC(C)C)C(=O)N[C@@H](CC(=O)O)C(=O)N[C@H](C(N)=O)[C@@H](C)O)C(C)C)C(=O)O)C(=O)O [PEP16] | 0.05 | 0.8 | –
– | CC(C)C[C@H](NC(=O)[C@H](Cc1ccc(O)cc1)NC(=O)[C@H](CCCCN)NC(=O)[C@H](CO)NC(=O)[C@H](Cc1ccc(O)cc1)NC(=O)[C@H](CC(=O)O)NC(=O)[C@H](CO)NC(=O)[C@@H](NC(=O)[C@H](Cc1ccccc1)NC(=O)[C@@H](NC(=O)CNC(=O)[C@H](CCC(N)=O)NC(=O)[C@@H](CO)NC(=O)[C@@H](N)Cc1c[nH]cn1)[C@@H](C)O)[C@@H](C)O)C(=O)N[C@@H](CC(=O)O)C(=O)N[C@@H](CCC(=O)O)C(=O)N[C@@H](CCCNC(=N)N)C(=O)N[C@@H](C)C(=O)N[C@@H](C)C(=O)N[C@@H](CCCCNC(=O)COCCOCCNC(=O)COCCOCCNC(=O)CC[C@H](NC(=O)CCCCCCCCCCCCCCCN=[N+]=[N-])C(=O)O)C(=O)N[C@@H](CC(=O)O)C(=O)N[C@@H](Cc1ccccc1)C(=O)N[C@H](C(=O)N[C@@H](CCC(N)=O)C(=O)N[C@@H](Cc1c[nH]c2ccccc12)C(=O)N[C@@H](CC(C)C)C(=O)N[C@@H](CC(C)C)C(=O)N[C@@H](CC(=O)O)C(=O)N[C@H](C(N)=O)[C@@H](C)O)C(C)C [PEP26] | 0.12 | 1.0 | 0.12
– | CCCCCCCCCCCCCCCC(=O)N[C@@H](CCC(=O)N[C@@H](CCC(=O)NCCCC[C@H](NC(=O)[C@H](CC(=O)O)NC(=O)[C@H](CO)NC(=O)[C@@H](NC(=O)[C@H](Cc1ccccc1)NC(=O)[C@@H](NC(=O)CNC(=O)[C@H](CCC(N)=O)NC(=O)[C@@H](CO)NC(=O)[C@@H](N)Cc1c[nH]cn1)[C@@H](C)O)[C@@H](C)O)C(=O)N[C@@H](CO)C(=O)N[C@@H](CCCCN)C(=O)N[C@@H](Cc1ccc(O)cc1)C(=O)N[C@@H](CC(C)C)C(=O)N[C@@H](CC(=O)O)C(=O)N[C@@H](CC(N)=O)C(=O)N[C@@H](CCCCN)C(=O)N[C@@H](CCCNC(=N)N)C(=O)N[C@@H](C)C(=O)N[C@@H](CCC(N)=O)C(=O)N[C@@H](CC(=O)O)C(=O)N[C@@H](Cc1ccccc1)C(=O)N[C@H](C(=O)N[C@@H](CCCCN=[N+]=[N-])C(=O)N[C@@H](Cc1c[nH]c2ccccc12)C(=O)N[C@@H](CC(C)C)C(=O)N[C@@H](CC(C)C)C(=O)N[C@@H](CCC(N)=O)C(=O)N[C@H](C(N)=O)[C@@H](C)O)C(C)C)C(=O)O)C(=O)O [PEP12] | 0.02 | 0.3 | 0.07
– | CCCCCCCCCCCCCCCC(=O)N[C@@H](CCC(=O)N[C@@H](CCC(=O)NCCCC[C@H](NC(=O)[C@H](CC(=O)O)NC(=O)[C@H](CO)NC(=O)[C@@H](NC(=O)[C@H](Cc1ccccc1)NC(=O)[C@@H](NC(=O)CNC(=O)[C@H](CCC(N)=O)NC(=O)C(C)(C)NC(=O)[C@@H](N)Cc1c[nH]cn1)[C@@H](C)O)[C@@H](C)O)C(=O)N[C@@H](CO)C(=O)N[C@@H](CCCCN)C(=O)N[C@@H](Cc1ccc(O)cc1)C(=O)N[C@@H](CC(C)C)C(=O)N[C@@H](CC(=O)O)C(=O)NC(C)(C)C(=O)N[C@@H](CCCNC(=N)N)C(=O)N[C@@H](C)C(=O)N[C@@H](C)C(=O)N[C@@H](CCC(N)=O)C(=O)N[C@@H](CC(=O)O)C(=O)N[C@@H](Cc1ccccc1)C(=O)N[C@H](C(=O)N[C@@H](CCCCN=[N+]=[N-])C(=O)N[C@@H](Cc1c[nH]c2ccccc12)C(=O)N[C@@H](CC(C)C)C(=O)N[C@@H](CCS(C)(=O)=O)C(=O)N[C@@H](CCCCN)C(=O)NCC(=O)N[C@@H](CCCNC(=N)N)C(=O)NCC(N)=O)C(C)C)C(=O)O)C(=O)O [PEP3] | 0.07 | 4.6 | 0.02
0.05 | CCCCCCCCCCCCCCCC(=O)N[C@@H](CCC(=O)N[C@@H](CCC(=O)NCCCC[C@H](NC(=O)[C@H](CC(=O)O)NC(=O)[C@H](CO)NC(=O)[C@@H](NC(=O)[C@H](Cc1ccccc1)NC(=O)[C@@H](NC(=O)CNC(=O)[C@H](CCC(N)=O)NC(=O)[C@@H](CO)NC(=O)[C@@H](N)Cc1c[nH]cn1)[C@@H](C)O)[C@@H](C)O)C(=O)N[C@@H](CO)C(=O)N[C@@H](CCCCN)C(=O)N[C@@H](Cc1ccc(O)cc1)C(=O)N[C@@H](CC(C)C)C(=O)N[C@@H](CC(=O)O)C(=O)N[C@@H](CCC(=O)O)C(=O)N[C@@H](CCCNC(=N)N)C(=O)N[C@@H](C)C(=O)N[C@@H](C)C(=O)N[C@@H](CCCCNC(=O)COCCOCCNC(=O)COCCOCCNC(=O)CCCCN=[N+]=[N-])C(=O)N[C@@H](CC(=O)O)C(=O)N[C@@H](Cc1ccccc1)C(=O)N[C@H](C(=O)N[C@@H](CCC(N)=O)C(=O)N[C@@H](Cc1c[nH]c2ccccc12)C(=O)N[C@@H](CC(C)C)C(=O)N[C@@H](CC(C)C)C(=O)N[C@@H](CC(=O)O)C(=O)N[C@H](C(N)=O)[C@@H](C)O)C(C)C)C(=O)O)C(=O)O [PEP17] | 0.06 | 1.2 | –
– | CCCCCCCCCCCCCCCC(=O)N[C@@H](CCC(=O)N[C@@H](CCC(=O)NCCCC[C@H](NC(=O)[C@H](CC(=O)O)NC(=O)[C@H](CO)NC(=O)[C@@H](NC(=O)[C@H](Cc1ccccc1)NC(=O)[C@@H](NC(=O)CNC(=O)[C@H](CCC(N)=O)NC(=O)[C@@H](CO)NC(=O)[C@@H](N)Cc1c[nH]cn1)[C@@H](C)O)[C@@H](C)O)C(=O)N[C@@H](CO)C(=O)N[C@@H](CCCCN)C(=O)N[C@@H](Cc1ccc(O)cc1)C(=O)N[C@@H](CC(C)C)C(=O)N[C@@H](CC(=O)O)C(=O)N[C@@H](CO)C(=O)N[C@@H](CCCNC(=N)N)C(=O)N[C@@H](CCCNC(=N)N)C(=O)N[C@@H](C)C(=O)N[C@@H](Cc1c[nH]cn1)C(=O)N[C@@H](CC(=O)O)C(=O)N[C@@H](Cc1ccccc1)C(=O)N[C@H](C(=O)N[C@@H](CCCCN=[N+]=[N-])C(=O)N[C@@H](Cc1c[nH]c2ccccc12)C(=O)N[C@@H](CC(C)C)C(=O)N[C@@H](CC(C)C)C(=O)N[C@@H](CC(N)=O)C(=O)N[C@H](C(N)=O)[C@@H](C)O)C(C)C)C(=O)O)C(=O)O [PEP13] | 0.04 | 0.4 | 0.1
– | CCCCCCCCCCCCCCCC(=O)N[C@@H](CCC(=O)N[C@@H](CCC(=O)NCCCC[C@H](NC(=O)[C@H](CC(=O)O)NC(=O)[C@H](CO)NC(=O)[C@@H](NC(=O)[C@H](Cc1ccccc1)NC(=O)[C@@H](NC(=O)CNC(=O)[C@H](CCC(N)=O)NC(=O)C(C)(C)NC(=O)[C@@H](N)Cc1c[nH]cn1)[C@@H](C)O)[C@@H](C)O)C(=O)N[C@@H](CO)C(=O)N[C@@H](CCCCN)C(=O)N[C@@H](Cc1ccc(O)cc1)C(=O)N[C@@H](CC(C)C)C(=O)N[C@@H](CC(=O)O)C(=O)N[C@@H](CCC(=O)O)C(=O)N[C@@H](CCCNC(=N)N)C(=O)N[C@@H](C)C(=O)N[C@@H](C)C(=O)N[C@@H](CCC(N)=O)C(=O)N[C@@H](CC(=O)O)C(=O)N[C@@H](Cc1ccccc1)C(=O)N[C@H](C(=O)N[C@@H](CCCCN=[N+]=[N-])C(=O)N[C@@H](Cc1c[nH]c2ccccc12)C(=O)N[C@@H](CC(C)C)C(=O)N[C@@H](CC(C)C)C(=O)N[C@@H](CC(=O)O)C(=O)NCC(=O)N[C@@H](CCCNC(=N)N)C(=O)NCC(N)=O)C(C)C)C(=O)O)C(=O)O [PEP2] | 0.11 | 3.7 | 0.03
– | CCCCCCCCCCCCCCCC(=O)N[C@@H](CCC(=O)N[C@@H](CCC(=O)NCCCC[C@H](NC(=O)[C@H](CC(=O)O)NC(=O)[C@H](CO)NC(=O)[C@@H](NC(=O)[C@H](Cc1ccccc1)NC(=O)[C@@H](NC(=O)CNC(=O)[C@H](CCC(N)=O)NC(=O)C(C)(C)NC(=O)[C@@H](N)Cc1c[nH]cn1)[C@@H](C)O)[C@@H](C)O)C(=O)N[C@@H](CO)C(=O)N[C@@H](CCCCN)C(=O)N[C@@H](Cc1ccc(O)cc1)C(=O)N[C@@H](CC(C)C)C(=O)N[C@@H](CC(=O)O)C(=O)NC(C)(C)C(=O)N[C@@H](CCCNC(=N)N)C(=O)N[C@@H](CCCNC(=N)N)C(=O)N[C@@H](C)C(=O)N[C@@H](CCC(N)=O)C(=O)N[C@@H](CC(=O)O)C(=O)N[C@@H](Cc1ccccc1)C(=O)N[C@H](C(=O)N[C@@H](CCC(N)=O)C(=O)N[C@@H](Cc1c[nH]c2ccccc12)C(=O)N[C@@H](CC(C)C)C(=O)N[C@@H](CC(C)C)C(=O)N[C@@H](CC(=O)O)C(=O)N[C@H](C(=O)N[C@@H](CCCCN=[N+]=[N-])C(=O)N[C@@H](CCC(N)=O)C(=O)O)[C@@H](C)O)C(C)C)C(=O)O)C(=O)O [PEP6] | 0.07 | – | 0.17
0.06 | CCCCCCCCCCCCCCCC(=O)N[C@@H](CCC(=O)N[C@@H](CCC(=O)NCCCC[C@H](NC(=O)[C@H](CC(=O)O)NC(=O)[C@H](CO)NC(=O)[C@@H](NC(=O)[C@H](Cc1ccccc1)NC(=O)[C@@H](NC(=O)CNC(=O)[C@H](CCC(N)=O)NC(=O)[C@@H](CO)NC(=O)[C@@H](N)Cc1c[nH]cn1)[C@@H](C)O)[C@@H](C)O)C(=O)N[C@@H](CO)C(=O)N[C@@H](CCCCN)C(=O)N[C@@H](Cc1ccc(O)cc1)C(=O)N[C@@H](CC(C)C)C(=O)N[C@@H](CC(=O)O)C(=O)N[C@@H](CCC(=O)O)C(=O)N[C@@H](CCCNC(=N)N)C(=O)N[C@@H](C)C(=O)N[C@@H](C)C(=O)N[C@@H](CCC(N)=O)C(=O)N[C@@H](CC(=O)O)C(=O)N[C@@H](Cc1ccccc1)C(=O)N[C@H](C(=O)N[C@@H](CCCCN=[N+]=[N-])C(=O)N[C@@H](Cc1c[nH]c2ccccc12)C(=O)N[C@@H](CC(C)C)C(=O)N[C@@H](CC(C)C)C(=O)N[C@@H](CCC(=O)N[C@H](C(N)=O)[C@@H](C)O)C(=O)O)C(C)C)C(=O)O)C(=O)O [PEP11] | 0.03 | 0.4 | –
